The results in this text go back to US8653075B2, “Therapeutic methods employing substituted piperidines which are CCR3 antagonists” (Boehringer Ingelheim International GmbH, priority 2009, dated 2014).

The target of the experiment is T1, human chemokine receptor CCR3 (Homo sapiens, UniProt P51677).
T1 construct: expressed in transfected cells; host or cells: K562 cell line (hCCR3-C1 cells), membrane preparation
T1 sequence (P51677 1-355): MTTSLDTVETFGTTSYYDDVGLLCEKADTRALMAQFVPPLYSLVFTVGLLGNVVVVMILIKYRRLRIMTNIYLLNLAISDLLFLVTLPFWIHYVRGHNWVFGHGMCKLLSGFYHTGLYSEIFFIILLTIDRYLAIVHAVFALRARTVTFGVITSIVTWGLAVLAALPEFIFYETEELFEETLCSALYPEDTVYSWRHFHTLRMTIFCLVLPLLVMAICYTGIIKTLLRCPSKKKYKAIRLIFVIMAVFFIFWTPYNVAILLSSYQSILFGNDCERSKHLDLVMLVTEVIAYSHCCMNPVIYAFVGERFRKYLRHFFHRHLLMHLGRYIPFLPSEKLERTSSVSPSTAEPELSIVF
As to the kind of experiment: CCR3 receptor binding assay (SPA, 125I-eotaxin-1 displacement, hCCR3-C1 K562 cell membranes). The following applies: human Eotaxin-1 at human CCR3-Rezeptor; for inhibition at 1 µM: 1 μM test compound, read-out: CCR3 % inh @ 1 μM; for Ki: dose range 0.1 to 10000 nM. The procedure, abridged:
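SPA displacement of recombinant human 125I-eotaxin-1 (30.000 dpm per well) from membranes of CCR3-transfected K562 cells (0.5-10 μg protein/well) on WGA beads. Buffer was 25 mM HEPES, 25 mM MgCl2, 1 mM CaCl2, 0.1% BSA; incubation 2 h at room temperature. Specific binding was total minus NSB (unlabelled eotaxin-1), giving % inhibition and Ki.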

What is called Ki is the dissociation constant of the complex between target and ligand, obtained from inhibition or displacement. Low readings indicate a stronger hold on the target, high ones a looser hold on the target.

Take `Cc1cc(CN2CCC(N3C(=O)N(C)C[C@@H]3C(=O)Nc3cccc(-c4cscn4)c3)CC2)ccc1Cl` [Example 121]: the inhibition at 1 µM stood at 98% and the affinity corresponds to a Ki of 0.021 µM.

Turning to `Cc1cc(CN2CCC(N3C(=O)CC[C@H]3C(=O)NCc3cc(C(C)C)no3)CC2)ccc1Cl` [Example 52], the inhibition at 1 µM was 28% and the Ki was 1.75 µM.

Take `Cc1cc(-c2nnnn2C)cc(NC(=O)[C@H]2CCC(=O)N2C2CCN(Cc3ccc(Cl)c(C)c3)CC2)n1` [Example 196]: the inhibition at 1 µM is 89% and the affinity corresponds to a Ki of 0.095 µM.

In the case of `Cc1cc(CN2C3CCC2CC(N2C(=O)CC[C@@H]2C(=O)Nc2cccc(C(N)=O)c2)C3)ccc1Cl` (stereo partly drawn) [Example 81], the inhibition at 1 µM was 89% and the inhibitory constant (Ki) was 0.111 µM.

For the molecule `COc1ccc(NC(=O)[C@H]2CCC(=O)N2C2CCN(Cc3ccc(Cl)c(C)c3)CC2)cc1C(=O)N(C)CCO` [Example 178], the inhibition at 1 µM was determined as 86% and the affinity, expressed as Ki, was 0.108 µM.

With `Cc1cc(CN2CCC(N3C(=O)CC[C@@H]3C(=O)Nc3cccc(C(=O)N4CCC4)c3)CC2)ccc1Cl` [Example 152], the inhibition at 1 µM came to 100% and the inhibitory constant (Ki) worked out at 0.012 µM.

Turning to `Cc1cc(CN2CCC(N3C(=O)CC[C@H]3C(=O)Nc3n[nH]c4ccccc34)CC2)ccc1Cl` [Example 42], the inhibition at 1 µM was found to be 63% and the affinity corresponds to a Ki of 0.482 µM.

On to `CCNS(=O)(=O)c1cccc(NC(=O)[C@@H]2CCC(=O)N2C2CCN(Cc3ccc(Cl)c(C)c3)CC2)c1` [Example 12], for which the inhibition at 1 µM was found to be 84% and the Ki is 0.088 µM.

As for `CCn1cc(NC(=O)[C@H]2CCC(=O)N2C2CCN(Cc3ccc(Cl)c(C)c3)CC2)cc1C(=O)NC` [Example 155], the inhibition at 1 µM stood at 98% and the affinity corresponds to a Ki of 0.015 µM.
